Measurements as given in PMC5655053, “Pharmacological Basis of CD101 Efficacy: Exposure Shape Matters” (Antimicrobial Agents and Chemotherapy, 2017).
Where “and” joins values, the source holds several entries; their conditions need not be identical. Identical values can stand only once. Like-named read-outs stand apart in the source and are kept apart here. Numbered stars: 1 amine (or outer) side, 2 acyl side, 3 side chain; on linkers, the order of the positions; unused ones are H or OH. Bridge positions count the residues as written; N and C are the ends. Square brackets hold non-standard residues; d marks the D form. Peptide text beside a SMILES is read from it. * marks the point of attachment. Orn(4R-OH,5R-OCH2CH2NMe3+) = C[N+](C)(C)CCO[C@@H](N[*:3])[C@H](O)C[C@H](N[*:1])C(=O)[*:2]; pTerphenylCO(4''-OnC5H11) = CCCCCOc1ccc(-c2ccc(-c3ccc(C(=O)*)cc3)cc2)cc1; hTyr(3S-OH,4S-OH) = N[C@H](C(=O)O)[C@H](O)[C@@H](O)c1ccc(O)cc1; Pro(3S-OH,4S-Me) = C[C@H]1CN[C@H](C(=O)O)[C@H]1O; Hyp = O=C(O)[C@@H]1C[C@@H](O)CN1

What was measured:
[1] = Observation for overt toxicity in mice of the front-loaded dose studies; type: in vivo, ICR mice; conditions: any of the mice evaluated
Protocol: (§1) Simulated free-drug plasma concentration-time profiles of the three fractionated CD101 2 mg/kg dosing regimens are shown in Fig. 4.
A neutropenic, murine, disseminated candidiasis model was used for the evaluation of the effects of the CD101 dosing regimens on efficacy. Male or female ICR mice (n = 5 per regimen and observation time) weighing 22 ± 2 g were rendered neutropenic by treatments using the injection of cyclophosphamide 4 days prior to infection (day −4) and 1 day prior to infection (day −1) at 150 and 100 mg/kg i.p., respectively. Neutropenia was sustained for the duration of the study with cyclophosphamide doses (100 mg/kg i.p.) administered every 48 h on days 1, 3, 5, and 7 after infection. Each animal was inoculated, using a lateral tail vein injection, with 1 × 10^3 CFU of Candida albicans (isolate R303). CD101 (or vehicle) was administered 24 h postinfection via i.p. injection. Mice were euthanized with CO2 at 168 h (7 days) following the start of treatment. Mice in the control group were euthanized 0, 24, and 48 h after administration of vehicle. Paired kidneys were aseptically harvested and homogenized, and serial dilutions were plated for colony counts to determine the fungal burden (measured in CFU per gram). Kidney counts were not determined in animals that expired prior to the scheduled sacrifice time. […]

Candida albicans R303 [2] = experiment: Broth microdilution susceptibility testing (CLSI M27-A3); type: cell-based; conditions: C. albicans R303, CLSI M27-A3, RPMI 1640, 35°C, read at 24 h, ~50% growth inhibition, modal value of three occasions
Protocol: CD101 was supplied by Cidara Therapeutics, Inc. (San Diego, CA). Stock solutions of CD101 were prepared in dimethyl sulfoxide (DMSO) for the susceptibility testing. The vehicle used for dosing in the in vivo studies was 10% DMSO–1% Tween 20–saline solution. The challenge isolate utilized in these studies was Candida albicans R303. Susceptibility testing was done in accordance with the Clinical and Laboratory Standards Institute (CLSI) M27-A3 methods, using RPMI 1640 medium, an initial inoculum of 0.5 × 10^3 to 2.5 × 10^3 CFU/ml, and incubation at 35°C ([20]). MIC plates were read following 24 h of incubation, and MIC values are reported as concentrations resulting in prominent (∼50%) growth inhibition. Susceptibility testing was performed on three separate occasions. Final results were expressed as modal values. Quality control was performed on each day of testing using CLSI-recommended reference strains (C. krusei ATCC 6258 and C. parapsilosis ATCC 22019).

Candida albicans R303 [3] = experiment: Front-loaded dose studies, neutropenic murine disseminated candidiasis model; type: in vivo, ICR mice
Protocol: Fungi in the no-treatment control group grew well and reached a density of greater than 1 × 10^6 CFU/g by 48 h. The magnitudes of net change in log10 CFU from the baseline at 168 h were similar regardless of the fractionation schedule within the CD101 0.7 mg/kg and 7 mg/kg dosing groups. […] In the 7 mg/kg dose group, the magnitude of net change was greater than 2 log10 CFU reduction from the baseline at 168 h, regardless of the fractionation schedule. Conversely, results within the CD101 2 mg/kg group differed across the fractionation schedules. […] However, when this dose was front-loaded (i.e., delivered entirely on day 1), there was a greater than 2 log10 CFU reduction from the baseline at 168 h.
A neutropenic, murine, disseminated candidiasis model was used for the evaluation of the effects of the CD101 dosing regimens on efficacy. Male or female ICR mice (n = 5 per regimen and observation time) weighing 22 ± 2 g were rendered neutropenic by treatments using the injection of cyclophosphamide 4 days prior to infection (day −4) and 1 day prior to infection (day −1) at 150 and 100 mg/kg i.p., respectively. Neutropenia was sustained for the duration of the study with cyclophosphamide doses (100 mg/kg i.p.) administered every 48 h on days 1, 3, 5, and 7 after infection. Each animal was inoculated, using a lateral tail vein injection, with 1 × 10^3 CFU of Candida albicans (isolate R303). CD101 (or vehicle) was administered 24 h postinfection via i.p. injection. Mice were euthanized with CO2 at 168 h (7 days) following the start of treatment. Mice in the control group were euthanized 0, 24, and 48 h after administration of vehicle. Paired kidneys were aseptically harvested and homogenized, and serial dilutions were plated for colony counts to determine the fungal burden (measured in CFU per gram). Kidney counts were not determined in animals that expired prior to the scheduled sacrifice time. The front-loaded dose studies was performed under animal biosafety level 2 conditions in an Association for Assessment and Accreditation of Laboratory Animal Care-accredited vivarium, at Eurofins Panlabs Taiwan, Ltd., with the oversight of veterinarians to ensure compliance with the Eurofins Panlabs Institutional Animal Care and Use Committee regulations and the humane treatment of laboratory animals.

[4] = tested on: hepatocytes of Sprague-Dawdley rats; conditions: supratherapeutic (comparable) doses, 2-week repeated-dose study; cited from earlier work
Source text: The echinocandin CD101 is a novel antifungal agent with activity against Aspergillus and Candida species, including azole- and echinocandin-resistant isolates ([1], [2]). This compound is a structural analog of anidulafungin but differs in certain beneficial ways with regard to toxicological and pharmacokinetic properties.

[5] = Simulated free-drug plasma concentration-time profiles of the fractionated regimens; design: species or system mouse; conditions: mice
Protocol: as §1
(§2) Data collected from the pharmacokinetic study described above were used to develop a pharmacokinetic model describing the disposition of CD101 in mice in S-ADAPT ([21]). The developed pharmacokinetic model, along with the unbound CD101 fraction, was used to simulate free-drug concentration-time profiles for each dosing regimen administered in the front-loaded dose studies. Free-drug AUC0–168 values were calculated through numeric integration of CD101 free-drug concentration-time profiles. Relationships between changes in log10 CFU at 168 h and free-drug AUC0–168/MIC ratios were explored.

[6] = Single-dose i.p. pharmacokinetic study in mice, plasma, four-compartment model; type: in vivo, ICR mice; conditions: for maximum plasma concentration: female ICR mice, at first sampling (1 h), LC-MS/MS
Protocol: A four-compartment model best described the disposition of this agent in murine plasma. […] The coefficient of determination (r^2) for the model-predicted concentrations versus observed concentrations was 0.97. […] All model parameters were estimated with excellent precision, as indicated by a standard error of the mean (SEM) of less than 20% for 7 of 8 of the model parameters.
Healthy female ICR mice weighing 20 to 24 g were administered a single dose of CD101 via intraperitoneal (i.p.) injection. Doses of 1, 4, and 16 mg/kg of body weight were studied, utilizing 3 animals per dose level. Whole-blood samples (one sample per animal) were collected at 1, 3, 6, 12, 24, 48, 72, and 96 h postdose. Plasma was collected by centrifugation, and samples were stored at −20°C or below. Samples were analyzed using liquid chromatography with tandem mass spectrometry detection and an AB-SCIEX API 4000 mass spectrometry system. The method used in the analysis was qualified as fit for the purpose: calibration standards were matrix matched, and, for each analytical batch, triplicate calibration standards were included at the beginning of the batch, approximately in the middle, and at the end. Following analysis, quantitation is carried out by a calibration curve comprising analyte/internal standard area ratio versus concentration. Calibration standards ranged from 0.5 mg/liter (lower limit of quantitation [LLOQ]) to 100 mg/liter. Analytical batch acceptance followed the general guidance criterion that standards/quality control should be within ±20% for accuracy (percent nominal concentration) and ≤20% for precision (percent coefficient of variation). For analysis, plasma samples were quenched with acetonitrile (4:1 acetonitrile/plasma ratio) containing diclofenac as the internal standard. Animals were maintained in accordance with the criteria of the American Association for Assessment and Accreditation of Laboratory Animal Care (AAALAC). The pharmacokinetic study was approved by the Animal Research Committee of the William S. Middleton Memorial Veterans Affairs Hospital and the University of Wisconsin.
as §2

[7] = cited from earlier work
[8] = four-compartment model, murine plasma, 1-16 mg/kg i.p.

## CCCCCOc1ccc(-c2ccc(-c3ccc(C(=O)N[C@H]4C[C@@H](O)[C@@H](OCC[N+](C)(C)C)NC(=O)[C@@H]5[C@@H](O)[C@@H](C)CN5C(=O)[C@H]([C@@H](C)O)NC(=O)[C@H]([C@H](O)[C@@H](O)c5ccc(O)cc5)NC(=O)[C@@H]5C[C@@H](O)CN5C(=O)[C@H]([C@@H](C)O)NC4=O)cc3)cc2)cc1 [CD101] ({pTerphenylCO(4''-OnC5H11)}-[Orn(4R-OH,5R-OCH2CH2NMe3+)]T[Hyp][hTyr(3S-OH,4S-OH)]T[Pro(3S-OH,4S-Me)]; lactam 1-C)
[1]
  overt signs of toxicities: No overt signs of toxicities
Candida albicans R303 [2]
  modal MIC: 0.125 µg/mL
Candida albicans R303 [3]; total 2 mg/kg as single dose (2 mg/kg x 1), kidney burden, neutropenic ICR mice, n = 5
  log10 CFU reduction from the baseline at 168 h: > 2 log10 CFU and 2 log10 CFU
Candida albicans R303 [3]; total 2 mg/kg daily (0.29 mg/kg/day x 7), kidney burden, neutropenic ICR mice, n = 5
  log10 CFU increase from the baseline at 168 h: > 1 log10 CFU and 1 log10 CFU
Candida albicans R303 [3]; total 2 mg/kg twice weekly (1 mg/kg x 2), kidney burden, neutropenic ICR mice, n = 5
  net change in log10 CFU from the baseline at 168 h: net fungal stasis
Candida albicans R303 [3]; total 7 mg/kg i.p., regardless of the fractionation schedule
  log10 CFU reduction from the baseline at 168 h: greater than 2 log10 CFU
[4]
  hepatocyte findings: no changes were observed
[5]; 2 mg/kg total dose
  free-drug AUC0-24 of single-dose regimen relative to daily regimen: 7 fold
[5]
  AUC0-168 of daily 1 mg/kg regimen relative to 2 mg/kg front-loaded regimen: approximately 3 fold
[6]; 1 mg/kg i.p. single dose
  maximum plasma concentration: 3.97 mg/L
[6]; 4 mg/kg i.p. single dose
  maximum plasma concentration: 13.6 mg/L
[6]; 16 mg/kg i.p. single dose
  maximum plasma concentration: 52.0 mg/L
[6]; 1 to 16 mg/kg i.p., mice
  pharmacokinetics over the studied dose range: linear pharmacokinetics
[6]; [8]
  Q2 (distributional clearance), final estimate: 0.255 mL/min/kg
  Q3 (distributional clearance), final estimate: 5.2 mL/min/kg
  Q4 (distributional clearance), final estimate: 1.2 mL/min/kg
  V1 (central compartment volume), final estimate: 0.201 L/kg
  V2 (peripheral compartment volume), final estimate: 0.871 L/kg
  V3 (peripheral compartment volume), final estimate: 0.0341 L/kg
  V4 (peripheral compartment volume), final estimate: 0.165 L/kg
[6]; mouse, in vivo, ip, four-compartment model, murine plasma, 1-16 mg/kg i.p., read-out: CLt (total clearance), final estimate (converted)
  CL/F: 0.173 mL/min/kg
[7]; humans, healthy volunteers
  terminal half-life: ~133 h

## anidulafungin [reference compound]
[4]
  hepatocyte findings: hepatocellular necrosis ranging from mild to moderate

## oritavancin [reference compound]
[7]
  terminal half-life: ~245 h
